{
  "source": "paper PMC5218480",
  "about": "(PLoS ONE, 2017)",
  "tested_on": "MV-4-11 cells",
  "assay": "Gene expression microarray analysis (Affymetrix PrimeView) and GSEA",
  "format": "cell-based, human",
  "design": "RFU PODN (11730768_x_at) / Fold change /veh PODN (11730768_x_at) / RFU LINC00158 (11744669_a_at) / Fold change /veh LINC00158 (11744669_a_at) / RFU DUSP10 (11751237_a_at) / Fold change /veh DUSP10 (11751237_a_at) / RFU ID3 (11757404_x_at) / Fold change /veh ID3 (11757404_x_at) / RFU PLEKHG5 (11737974_s_at) / Fold change /veh PLEKHG5 (11737974_s_at) / RFU LRRC4B (11730491_at) / Fold change /veh LRRC4B (11730491_at) / RFU GIMAP4 (11747438_a_at) / Fold change /veh GIMAP4 (11747438_a_at) / RFU KRT8 (11758183_x_at) / Fold change /veh KRT8 (11758183_x_at) / RFU CNN1 (11734310_a_at) / Fold change /veh CNN1 (11734310_a_at) / RFU VPS37D (11726825_at) / Fold change /veh VPS37D (11726825_at) / RFU C10orf10 (11716522_x_at) / Fold change /veh C10orf10 (11716522_x_at) / RFU KIR2DL2 /// KIR2DL4 /// KIR2DL5A /// KIR2DL5B /// KIR2DS1 /// KIR2DS2 /// KIR2DS3 /// KIR2DS4 /// KIR3DL3 /// KIR3DL3 /// KIR3DS1 (11738374_at) / Fold change /veh KIR2DL2 /// KIR2DL4 /// KIR2DL5A /// KIR2DL5B /// KIR2DS1 /// KIR2DS2 /// KIR2DS3 /// KIR2DS4 /// KIR3DL3 /// KIR3DL3 /// KIR3DS1 (11738374_at) / RFU C1QL1 (11718748_at) / Fold change /veh C1QL1 (11718748_at) / RFU TMPRSS4 (11747572_a_at) / Fold change /veh TMPRSS4 (11747572_a_at) / RFU HAMP (11756126_x_at) / Fold change /veh HAMP (11756126_x_at) / RFU RNFT2 (11725882_a_at) / Fold change /veh RNFT2 (11725882_a_at) / RFU NR4A2 (11747474_a_at) / Fold change /veh NR4A2 (11747474_a_at) / RFU ABCC12 (11746883_a_at) / Fold change /veh ABCC12 (11746883_a_at) / RFU TMEM136 (11760407_x_at) / Fold change /veh TMEM136 (11760407_x_at) / RFU CLDN22 /// WWC2 (11732394_at) / Fold change /veh CLDN22 /// WWC2 (11732394_at) / RFU HLA-DPB1 (11760878_x_at) / Fold change /veh HLA-DPB1 (11760878_x_at) / RFU SPINT1 (11716480_a_at) / Fold change /veh SPINT1 (11716480_a_at) / RFU GAP43 (11754022_s_at) / Fold change /veh GAP43 (11754022_s_at) / RFU A4GNT (11735810_at) / Fold change /veh A4GNT (11735810_at) / RFU PRB3 (11715151_x_at) / Fold change /veh PRB3 (11715151_x_at) / RFU TUBB4B (11761932_at) / Fold change /veh TUBB4B (11761932_at) / RFU CAPN14 (11732068_a_at) / Fold change /veh CAPN14 (11732068_a_at) / RFU TMCC2 (11721928_a_at) / Fold change /veh TMCC2 (11721928_a_at) / RFU IRGQ (11745062_a_at) / Fold change /veh IRGQ (11745062_a_at) / RFU FAM174B (11720279_a_at) / Fold change /veh FAM174B (11720279_a_at) / RFU TMPRSS4 (11748680_a_at) / Fold change /veh TMPRSS4 (11748680_a_at) / RFU FAM212B (11763350_a_at) / Fold change /veh FAM212B (11763350_a_at) / RFU PLEKHG5 (11743358_a_at) / Fold change /veh PLEKHG5 (11743358_a_at) / RFU ZSCAN30 (11745921_a_at) / Fold change /veh ZSCAN30 (11745921_a_at) / RFU CMKLR1 (11741424_a_at) / Fold change /veh CMKLR1 (11741424_a_at) / RFU LOC101060620 /// MAPK8IP1 (11723275_at) / Fold change /veh LOC101060620 /// MAPK8IP1 (11723275_at) / RFU SPTSSB (11747773_x_at) / Fold change /veh SPTSSB (11747773_x_at) / RFU PRSS12 (11739890_at) / Fold change /veh PRSS12 (11739890_at) / RFU BIN1 (11741810_x_at) / Fold change /veh BIN1 (11741810_x_at) / RFU WNT11 (11732464_a_at) / Fold change /veh WNT11 (11732464_a_at) / RFU C10orf10 (11716521_a_at) / Fold change /veh C10orf10 (11716521_a_at) / RFU C5orf56 (11738089_at) / Fold change /veh C5orf56 (11738089_at) / RFU CYB561 (11721691_x_at) / Fold change /veh CYB561 (11721691_x_at) / RFU ANKRD19P (11752326_a_at) / Fold change /veh ANKRD19P (11752326_a_at) / RFU OR2T12 /// OR2T33 /// OR2T8 (11738714_s_at) / Fold change /veh OR2T12 /// OR2T33 /// OR2T8 (11738714_s_at) / RFU VCAN (11748164_a_at) / Fold change /veh VCAN (11748164_a_at) / RFU JSRP1 (11732532_at) / Fold change /veh JSRP1 (11732532_at) / RFU KRTAP10-11 (11738290_x_at) / Fold change /veh KRTAP10-11 (11738290_x_at) / RFU MYO3A (11730013_a_at) / Fold change /veh MYO3A (11730013_a_at) / RFU EBF3 (11725865_a_at) / Fold change /veh EBF3 (11725865_a_at) / RFU CAMK2N1 (11719241_x_at) / Fold change /veh CAMK2N1 (11719241_x_at) / RFU C5orf56 (11738088_a_at) / Fold change /veh C5orf56 (11738088_a_at) / RFU OLFML3 (11715873_a_at) / Fold change /veh OLFML3 (11715873_a_at) / RFU LOC100653217 /// NTM (11731650_a_at) / Fold change /veh LOC100653217 /// NTM (11731650_a_at) / RFU MAPK11 (11762145_a_at) / Fold change /veh MAPK11 (11762145_a_at) / RFU FIZ1 (11724087_x_at) / Fold change /veh FIZ1 (11724087_x_at) / RFU OASL (11726364_x_at) / Fold change /veh OASL (11726364_x_at) / RFU SOX15 (11748057_x_at) / Fold change /veh SOX15 (11748057_x_at) / RFU CD79A (11719716_a_at) / Fold change /veh CD79A (11719716_a_at) / RFU HIST1H1D (11736915_at) / Fold change /veh HIST1H1D (11736915_at) / RFU CASKIN2 (11723855_a_at) / Fold change /veh CASKIN2 (11723855_a_at) / RFU LOC730098 (11760151_x_at) / Fold change /veh LOC730098 (11760151_x_at) / RFU OR4N2 (11742367_at) / Fold change /veh OR4N2 (11742367_at) / RFU PRRT2 (11749266_a_at) / Fold change /veh PRRT2 (11749266_a_at) / RFU SNX32 (11753110_a_at) / Fold change /veh SNX32 (11753110_a_at) / RFU CDHR5 (11726645_a_at) / Fold change /veh CDHR5 (11726645_a_at) / RFU RCAN1 (11760418_a_at) / Fold change /veh RCAN1 (11760418_a_at) / RFU FAM167A (11723789_a_at) / Fold change /veh FAM167A (11723789_a_at) / RFU FAM26E (11764081_at) / Fold change /veh FAM26E (11764081_at) / RFU ISYNA1 (11749810_s_at) / Fold change /veh ISYNA1 (11749810_s_at) / RFU ACY1 (11761880_at) / Fold change /veh ACY1 (11761880_at) / RFU 11764098_at / Fold change /veh 11764098_at / RFU SAMD14 (11745864_x_at) / Fold change /veh SAMD14 (11745864_x_at) / RFU NPB (11741838_a_at) / Fold change /veh NPB (11741838_a_at) / RFU TMPRSS6 (11731388_a_at) / Fold change /veh TMPRSS6 (11731388_a_at) / RFU KRTAP10-2 (11738614_at) / Fold change /veh KRTAP10-2 (11738614_at) / RFU ARHGAP8 /// PRR5-ARHGAP8 (11727945_x_at) / Fold change /veh ARHGAP8 /// PRR5-ARHGAP8 (11727945_x_at) / RFU KRTAP5-7 /// NADSYN1 (11734609_at) / Fold change /veh KRTAP5-7 /// NADSYN1 (11734609_at) / RFU RASL12 (11751679_a_at) / Fold change /veh RASL12 (11751679_a_at) / RFU CDKN2B (11736163_a_at) / Fold change /veh CDKN2B (11736163_a_at) / RFU PRF1 (11729649_at) / Fold change /veh PRF1 (11729649_at) / RFU, ZNF638 /// ZNF638-IT1 / Fold change vs veh, ZNF638 /// ZNF638-IT1 / RFU, PANK3 / Fold change vs veh, PANK3 / RFU, SH3YL1 / Fold change vs veh, SH3YL1 / RFU, ZEB2 / Fold change vs veh, ZEB2 / RFU, NRIP1 / Fold change vs veh, NRIP1 / RFU, PTTG1IP / Fold change vs veh, PTTG1IP / RFU, CAPN2 / Fold change vs veh, CAPN2 / RFU, MED14 / Fold change vs veh, MED14 / RFU, SNORA58 / Fold change vs veh, SNORA58 / RFU, C1orf63 / Fold change vs veh, C1orf63 / RFU, LRRFIP1 / Fold change vs veh, LRRFIP1 / RFU, NDUFAF7 / Fold change vs veh, NDUFAF7 / RFU, SLC12A2 / Fold change vs veh, SLC12A2 / RFU, IBTK / Fold change vs veh, IBTK / RFU, ESF1 / Fold change vs veh, ESF1 / Fold change vs veh, TMEM50B / RFU, TAOK1 / Fold change vs veh, TAOK1 / RFU, ACBD3 / Fold change vs veh, ACBD3 / RFU, TMA16 / Fold change vs veh, TMA16 / RFU, RWDD3 / Fold change vs veh, RWDD3 / RFU, BCAT1 / Fold change vs veh, BCAT1 / RFU, EDEM3 / Fold change vs veh, EDEM3 / RFU, TMEM33 / Fold change vs veh, TMEM33 / RFU, WDR75 / Fold change vs veh, WDR75 / RFU, AHCTF1 / Fold change vs veh, AHCTF1 / RFU, TFRC / Fold change vs veh, TFRC / RFU, ZDHHC17 / Fold change vs veh, ZDHHC17 / RFU, NOM1 / Fold change vs veh, NOM1 / RFU, ARL8B / Fold change vs veh, ARL8B / RFU, ZBTB11 / Fold change vs veh, ZBTB11 / RFU, TAMM41 / Fold change vs veh, TAMM41 / RFU, KIAA1704 /// LOC100996395 / Fold change vs veh, KIAA1704 /// LOC100996395 / RFU, ING1 / Fold change vs veh, ING1 / RFU, TRMT61B / Fold change vs veh, TRMT61B / RFU, FUBP3 / Fold change vs veh, FUBP3 / RFU, TP53 / Fold change vs veh, TP53 / RFU, TNKS2 / Fold change vs veh, TNKS2 / RFU, ZFP14 / Fold change vs veh, ZFP14 / RFU, ACTR2 / Fold change vs veh, ACTR2 / RFU, PPP3R1 / Fold change vs veh, PPP3R1 / RFU, PIK3R1 / Fold change vs veh, PIK3R1 / RFU, HNRNPA1 / Fold change vs veh, HNRNPA1 / RFU, RNF170 / Fold change vs veh, RNF170 / RFU, ZNF28 / Fold change vs veh, ZNF28 / RFU, RNGTT / Fold change vs veh, RNGTT / RFU, OGT / Fold change vs veh, OGT / RFU, BRD1 / Fold change vs veh, BRD1 / RFU, MARS / Fold change vs veh, MARS / RFU, ZNF655 / Fold change vs veh, ZNF655 / RFU, FAHD1 / Fold change vs veh, FAHD1 / RFU, BDP1 / Fold change vs veh, BDP1 / RFU, LRRCC1 / Fold change vs veh, LRRCC1 / RFU, ARID1A / Fold change vs veh, ARID1A / RFU, ZNF146 / Fold change vs veh, ZNF146 / RFU, ZNF330 / Fold change vs veh, ZNF330 / RFU, GPN3 / Fold change vs veh, GPN3 / RFU, C9orf123 / Fold change vs veh, C9orf123 / RFU, N4BP2L2 / Fold change vs veh, N4BP2L2 / RFU, ARFIP1 / Fold change vs veh, ARFIP1 / RFU, FAM179B / Fold change vs veh, FAM179B / RFU, BCL10 / Fold change vs veh, BCL10 / RFU, UHRF1BP1L / Fold change vs veh, UHRF1BP1L / RFU, BET1 / Fold change vs veh, BET1 / RFU, CNOT2 / Fold change vs veh, CNOT2 / RFU, ZNF268 / Fold change vs veh, ZNF268 / Fold change vs veh, ZNF507 / RFU, DGCR2 / Fold change vs veh, DGCR2 / RFU, WDSUB1 / Fold change vs veh, WDSUB1 / Fold change vs veh, HSP90B1 /// MIR3652 / RFU, ADSS / Fold change vs veh, ADSS / RFU, GK / Fold change vs veh, GK / RFU, ZNF148 / Fold change vs veh, ZNF148 / RFU, TAF9 / Fold change vs veh, TAF9 / RFU, SLC1A5 / Fold change vs veh, SLC1A5 / RFU, SLMO2 / Fold change vs veh, SLMO2 / RFU, ABCC4 / Fold change vs veh, ABCC4 / RFU, LOC101060439 /// RAP1B / Fold change vs veh, LOC101060439 /// RAP1B / RFU, RFX7 / Fold change vs veh, RFX7 / RFU, GTPBP10 / Fold change vs veh, GTPBP10 / RFU, CNEP1R1 / Fold change vs veh, CNEP1R1 / RFU, BIVM-ERCC5 /// ERCC5 / Fold change vs veh, BIVM-ERCC5 /// ERCC5 / RFU, ILF3 / Fold change vs veh, ILF3 / RFU 11762660_at / Fold change /veh 11762660_at / RFU VCAN (11757783_s_at) / Fold change /veh VCAN (11757783_s_at) / RFU DDX43 (11728927_at) / Fold change /veh DDX43 (11728927_at) / RFU KRT8 (11758188_x_at) / Fold change /veh KRT8 (11758188_x_at) / RFU NKD1 (11759106_at) / Fold change /veh NKD1 (11759106_at) / RFU SRD5A1 (11742802_a_at) / Fold change /veh SRD5A1 (11742802_a_at) / RFU TPSAB1 /// TPSB2 (11721975_s_at) / Fold change /veh TPSAB1 /// TPSB2 (11721975_s_at) / RFU GSTM3 (11746129_a_at) / Fold change /veh GSTM3 (11746129_a_at) / RFU IL23R (11737362_x_at) / Fold change /veh IL23R (11737362_x_at) / RFU TMEM51 (11727254_a_at) / Fold change /veh TMEM51 (11727254_a_at) / RFU PIWIL2 (11732686_x_at) / Fold change /veh PIWIL2 (11732686_x_at) / RFU ORM1 (11744905_x_at) / Fold change /veh ORM1 (11744905_x_at) / RFU CCDC152 (11743942_at) / Fold change /veh CCDC152 (11743942_at) / RFU ECM1 (11717891_a_at) / Fold change /veh ECM1 (11717891_a_at) / RFU IL23R (11748794_a_at) / Fold change /veh IL23R (11748794_a_at) / RFU TNFAIP8L3 (11732012_x_at) / Fold change /veh TNFAIP8L3 (11732012_x_at) / RFU MBOAT4 (11741988_at) / Fold change /veh MBOAT4 (11741988_at) / RFU 11764193_at / Fold change /veh 11764193_at / RFU TMEM53 (11763286_at) / Fold change /veh TMEM53 (11763286_at) / RFU MAGEB2 (11727129_at) / Fold change /veh MAGEB2 (11727129_at) / RFU TMEM200A (11744735_a_at) / Fold change /veh TMEM200A (11744735_a_at) / RFU CCDC152 (11751479_a_at) / Fold change /veh CCDC152 (11751479_a_at) / RFU FAM211A (11726209_a_at) / Fold change /veh FAM211A (11726209_a_at) / RFU RGS16 (11746705_a_at) / Fold change /veh RGS16 (11746705_a_at) / RFU VCAN (11755009_s_at) / Fold change /veh VCAN (11755009_s_at) / RFU RHOB (11743442_s_at) / Fold change /veh RHOB (11743442_s_at) / RFU RGS16 (11720943_a_at) / Fold change /veh RGS16 (11720943_a_at) / RFU RGS16 (11720944_at) / Fold change /veh RGS16 (11720944_at) / RFU, VPS4B / Fold change vs veh, VPS4B / RFU, CREB1 / Fold change vs veh, CREB1 / RFU, DNAJC13 / Fold change vs veh, DNAJC13 / RFU, GNAQ / Fold change vs veh, GNAQ / RFU, CDK5R1 / Fold change vs veh, CDK5R1 / RFU, ZRANB3 / Fold change vs veh, ZRANB3 / RFU, CUL4A / Fold change vs veh, CUL4A / RFU, CCNY / Fold change vs veh, CCNY / RFU, UFL1 / Fold change vs veh, UFL1 / RFU, COG3 / Fold change vs veh, COG3 / RFU, DIAPH2 / Fold change vs veh, DIAPH2 / RFU, SKA2 / Fold change vs veh, SKA2 / RFU, AFF3 / Fold change vs veh, AFF3 / RFU, LMF1 / Fold change vs veh, LMF1 / RFU, IPO11 / Fold change vs veh, IPO11 / RFU, DFFB / Fold change vs veh, DFFB / RFU, FOXP1 / Fold change vs veh, FOXP1 / RFU, CARD8 / Fold change vs veh, CARD8 / RFU, STRN3 / Fold change vs veh, STRN3 / RFU, ADK / Fold change vs veh, ADK / RFU, RASSF2 / Fold change vs veh, RASSF2 / RFU, WIPF1 / Fold change vs veh, WIPF1 / RFU, LARP1B / Fold change vs veh, LARP1B / RFU, RASA1 / Fold change vs veh, RASA1 / RFU, RB1 / Fold change vs veh, RB1 / RFU, PPFIA1 / Fold change vs veh, PPFIA1 / RFU, MAT2A / Fold change vs veh, MAT2A / RFU, CCT5 / Fold change vs veh, CCT5 / RFU, WDR92 / Fold change vs veh, WDR92 / RFU, CUX1 / Fold change vs veh, CUX1 / RFU, TTC7A / Fold change vs veh, TTC7A / RFU, TMEM135 / Fold change vs veh, TMEM135 / RFU, DEPTOR / Fold change vs veh, DEPTOR / RFU, CPM / Fold change vs veh, CPM / RFU, DNAJB6 / Fold change vs veh, DNAJB6 / RFU, CACNA2D3 / Fold change vs veh, CACNA2D3 / RFU, DTX4 / Fold change vs veh, DTX4 / RFU, TFCP2 / Fold change vs veh, TFCP2 / RFU, GMCL1 /// GMCL1P1 / Fold change vs veh, GMCL1 /// GMCL1P1 / RFU, AEBP2 / Fold change vs veh, AEBP2 / RFU, SNHG1 /// SNORD22 /// SNORD25 /// SNORD26 /// SNORD27 /// SNORD28 /// SNORD29 /// SNORD31 / Fold change vs veh, SNHG1 /// SNORD22 /// SNORD25 /// SNORD26 /// SNORD27 /// SNORD28 /// SNORD29 /// SNORD31 / Fold change (Aza/veh), C12orf56 (ProbeSet 11735607_a_at) / Fold change (ACY-1035/veh), C12orf56 (ProbeSet 11735607_a_at) / Fold change (Aza/veh), FGFR1OP (ProbeSet 11751329_s_at) / Fold change (ACY-1035/veh), FGFR1OP (ProbeSet 11751329_s_at) / Fold change (Aza/veh), VPS36 (ProbeSet 11739960_a_at) / Fold change (ACY-1035/veh), VPS36 (ProbeSet 11739960_a_at) / RFU SYPL1 (11715823_x_at) / Fold change /veh SYPL1 (11715823_x_at) / RFU IGFBP7 (11715501_s_at) / Fold change /veh IGFBP7 (11715501_s_at) / RFU REEP3 (11722064_at) / Fold change /veh REEP3 (11722064_at) / RFU IGLL1 (11728026_x_at) / Fold change /veh IGLL1 (11728026_x_at): dose or concentration left out as unconfirmed",
  "settings": "MV-4-11 cells, 48 hours",
  "data": [
    {"smiles": "Nc1ccc(-c2cccs2)cc1NC(=O)c1ccc2c(c1)cc(C1CC1)n2CCN1CCOCC1", "note": "[ACY-1035]", "values": [
      {"measurement": "RFU MAGEB2 (11727129_at)", "value": 5.89, "unit": "RFU"}
    ]}
  ]
}
